Experiments:
[1] = test system: adult subjects with active ankylosing spondylitis (AS) who had an inadequate response to biologic disease-modifying anti-rheumatic drug therapy (bDMARD-IR); assay: SELECT AXIS 2 Study 1, Phase 3 placebo-controlled, efficacy at Week 14; assay type: in vivo, human
[2] = test system: adult subjects with active ankylosing spondylitis (AS) who had an inadequate response to biologic disease-modifying anti-rheumatic drug therapy (bDMARD-IR); conditions: human, in vivo
[3] = test system: bDMARD-naïve patients with AS who had an inadequate response to non-steroidal anti-inflammatory drugs (NSAIDs); conditions: cited from earlier work
[4] = test system: adult subjects with active ankylosing spondylitis (AS) who had an inadequate response to biologic disease-modifying anti-rheumatic drug therapy (bDMARD-IR); assay: SELECT AXIS 2 Study 1, safety up to Week 14
AS = conditions: literature; cited from earlier work
[5] = AESI up to Week 14, N = 211, listed as Upadacitinib
[6] = AESI up to Week 14, N = 211, listed as upadacitinib freebase
[7] = CTCAE V4, Double-Blind Period (Week 14)
[8] = up to Week 14, N = 211, listed as RINVOQ

## CC[C@@H]1CN(C(=O)NCC(F)(F)F)C[C@@H]1c1cnc2cnc3[nH]ccc3n12 [upadacitinib, (3S,4R)-3-ethyl-4-(3H-imidazo[1,2-a]pyrrolo[2,3-e]pyrazin-8-yl)-N-(2,2,2-trifluoroethyl)pyrrolidine-1-carboxamide]
[1]
  AS QoL, UPA-PBO: −3.07
  ASDAS(CRP) Low Disease Activity, UPA-PBO: 34.0
  ASDAS(CRP), UPA-PBO: −1.02
  BASFI (Function), UPA-PBO: −1.17
  BASMI (Mobility), UPA-PBO: −0.32
  MASES (Enthesitis): −2.6
  MASES (Enthesitis), UPA-PBO: −1.5
  MRI Spine SPARCC, UPA-PBO: −3.90
  Nocturnal Back Pain, UPA-PBO: −1.7
  Total Back Pain, UPA-PBO: −1.53
[1]; 15 mg
  AS QoL: −5.10
  ASDAS(CRP): −1.52
  BASFI (Function): −2.26
  BASMI (Mobility): −0.48
  MRI Spine SPARCC: −3.95
  Nocturnal Back Pain: −3.2
  Total Back Pain: −3.00
  onset of effect in ASAS40: 4 Week
[1]; 15 mg QD, Week 14, NRI-MI
  ASDAS(CRP) Low Disease Activity: 44.1%
[2]
  Opportunistic infection excluding tuberculosis and herpes zoster: 0 (0.0) n (%)
[2]; 14 weeks
  COVID-19 related AE, %: (5.7) %
[3]; SELECT-AXIS 1, Week 14
  ASAS40 response at Week 14 (primary endpoint) versus placebo: significantly greater achievement
[3]; SELECT-AXIS 1, up to and including Week 64
  efficacy once achieved at Week 14, over time: sustained or improved over time
[4]; 15 mg QD, up to Week 14, N = 211
  Adverse event (AE), %: (40.8) %
[4]; 15 mg, through week 14
  Serious infections, proportion of patients: 2.4%
  herpes zoster, proportion of patients: 0.9%
[4]; AESI up to Week 14, N = 211
  Active tuberculosis: 0 (0.0) n (%)
  Anemia: 3 (1.4) n (%)
  Hepatic disorder: 6 (2.8) n (%)
  Herpes zoster: 2 (0.9) n (%)
  Infection: 31 (14.7) n (%)
  Lymphoma: 0 (0.0) n (%)
  Lymphopenia: 1 (0.5) n (%)
  Malignancy: No malignancy
  Malignancy other than NMSC: 0 (0.0) n (%)
  Neutropenia: 6 (2.8) n (%)
  Non-melanoma skin cancer (NMSC): 0 (0.0) n (%)
  Renal dysfunction: 0 (0.0) n (%)
  Serious infection: 5 (2.4) n (%)
[4]; [5]
  Adjudicated MACE: 0 (0.0) n (%)
  Adjudicated gastrointestinal perforation: 0 (0.0) n (%)
  Adjudicated venous thromboembolic events: 0 (0.0) n (%)
  Malignancy: 0 (0.0) n (%)
[4]; [6]
  Adjudicated MACE: no events
  Adjudicated gastrointestinal perforation: no events
  Adjudicated venous thromboembolic events: no events
  Malignancy: no events
[4]; [7]
  ALT (U/L) Grade 4 (>20.0 xULN): 0/211
  AST (U/L) Grade 4 (>20.0 xULN): 0/211
  Creatinine (umol/L) Grade 3 (>3.0-6.0 xULN or >3.0 xBaseline): 0/211
  Creatinine (umol/L) Grade 4 (>6.0 xULN): 0/211
  Hemoglobin (g/L) Grade 3 (<80): 0/211
  Lymphocytes (10^9/L) Grade 4 (<0.2): 0/211
  Neutrophils (10^9/L) Grade 4 (<0.5): 0/211
[4]; Phase 3 AS bDMARD-IR study
  safety profile: no new risks were identified
[4]; as assessed by investigator, up to Week 14, N = 211
  AE with reasonable possibility of being related to study treatment, %: (17.1) %
[4]; up to Week 14
  hepatic disorders reported, nature: mild or moderate transaminase elevations
[4]; up to Week 14, N = 211
  AE leading to death, %: (0.0) %
  AE leading to withdrawal of study treatment, %: (0.0) %
  All deaths, %: (0.0) %
  Serious AE, %: (2.8) %
  Severe AE, %: (3.3) %
[4]; [8]
  AE leading to withdrawal of study treatment, %: 0%
  Serious AE, %: 2.8%

## tocilizumab: IL-6 inhibitor
AS
  efficacy achieved in AS: low efficacy

## ustekinumab: IL-12/23 inhibitor
AS
  efficacy achieved in AS: low efficacy

B1: sarilumab: IL-6 inhibitor (antibody, chains of the INN, looked up, V domains shown)
VH: EVQLVESGGGLVQPGRSLRLSCAASRFTFDDYAMHWVRQAPGKGLEWVSGISWNSGRIGYADSVKGRFTISRDNAENSLFLQMNGLRAEDTALYYCAKGRDSFDIWGQGTMVTVSS
VL: DIQMTQSPSSVSASVGDRVTITCRASQGISSWLAWYQQKPGKAPKLLIYGASSLESGVPSRFSGSGSGTDFTLTISSLQPEDFASYYCQQANSFPYTFGQGTKLEIK
AS
  efficacy achieved in AS: low efficacy
